Source: patent publication US20250235455A1, “AQUEOUS TICAGRELOR SOLUTIONS, METHOD OF MANUFACTURING AND USES” (HYLORIS DEVELOPMENTS SA, priority 2022, published 2025)
Marks after values point to notes of the source that are not given here.

Assays:
[1] = Solubility of ticagrelor in HPβCD (appearance on shaking platform); assay type: physicochemical
Protocol: In a first example two different types of cyclodextrin were used and compared for the solubilization of ticagrelor. An unbuffered stock solution of HPβCD or SBECD was made in water at the target concentrations of 20 w/w %, 25 w/w %, 30 w/w %, 35 w/w % and 40 w/w %. Ticagrelor was added slowly under vortex. Ticagrelor was used at concentrations of 5, 10 or 14 mg/ml in milli Q water. The ticagrelor-cyclodextrin solutions were left on a shaking platform. No sonification or heat was applied.

[2] = Storage stability of ticagrelor 6 mg/ml in HPβCD 40% w/w, phosphate buffer pH 7.5, at 40° C. and 75% RH; assay type: physicochemical
Excerpt: A Gradient HPLC method was used to analyze impurities in formulations using a YMC-Pack Pro C18 column (100×4.6 mm, S-3 μm 12 nm). Good separation was obtained for all the impurities. • Amine impurity: (1S,2S,3R,5S)-3-(7-amino-5-(propylsulfanyl)-3H-[1,2,3]triazolo[4,5-d]pyrimidin-3-yl)-5-(2-hydroxyethoxy)cyclopentane-1,2-diol. This is a process related degradant impurity. • Regiomer impurity: (1S, 2S, 3R, 5S)-3-((3-((1R,2S)-2-(3,4-Difluorophenyl)cyclopropyl)-5-(propylsulfanyl)-3H-[1,2,3]triazolo[4,5-d]pyrimidin-7-yl)amino)-5-(2-hydroxyethoxy)cyclopentane-1,2-diol. This is a process related degradant impurity. • Acetal impurity: 2-[[(3aR,4S,6S,6aS)-6-[7-[1R,2S)-2-(3,4-difluorophenyl)-cyclopropyl]amino]-5-(propylsulfanyl)-3H-[1,2,3]triazolo-[4,5-d]pyrimidin-3-yl]-2,2-dimethyltetrahydro-2H-3aHcyclopenta[d][1,3]dioxol-4-yl]oxy]ethan-1-ol.
First HPβCD was dissolved in a phosphate buffer solution of pH 7.5 prepared separately in water. […] The solution was filtered through a 0.22 micrometer filter and filled in USP Type I amber colored glass vials. The vials were stoppered and stored. All precautions were taken during manufacturing, such as N2 purging and avoiding direct exposure to light.

[3] = HPβCD 20% w/w, ticagrelor 5 mg/ml
[4] = HPβCD 20% w/w, ticagrelor 10 mg/ml
[5] = HPβCD 20% w/w, ticagrelor 14 mg/ml
[6] = HPβCD 25% w/w, ticagrelor 5 mg/ml
[7] = HPβCD 25% w/w, ticagrelor 10 mg/ml
[8] = HPβCD 25% w/w, ticagrelor 14 mg/ml
[9] = HPβCD 30% w/w, ticagrelor 5 mg/ml
[10] = HPβCD 30% w/w, ticagrelor 10 mg/ml
[11] = HPβCD 30% w/w, ticagrelor 14 mg/ml
[12] = HPβCD 35% w/w, ticagrelor 5 mg/ml
[13] = HPβCD 35% w/w, ticagrelor 10 mg/ml
[14] = HPβCD 35% w/w, ticagrelor 14 mg/ml
[15] = HPβCD 40% w/w, ticagrelor 5 mg/ml
[16] = HPβCD 40% w/w, ticagrelor 10 mg/ml
[17] = HPβCD 40% w/w, ticagrelor 14 mg/ml
[18] = pH 7.5, T = 4 weeks, 40° C./75% RH
[19] = pH 7.5, T = 8 weeks, 40° C./75% RH
[20] = pH 7.5, T = 12 weeks, 40° C./75% RH
[21] = pH 7.5, T = 24 Weeks, 40° C./75% RH

CCCSc1nc(N[C@@H]2C[C@H]2c2ccc(F)c(F)c2)c2nnn([C@@H]3C[C@H](OCCO)[C@@H](O)[C@H]3O)c2n1 [Ticagrelor, (1S,2S,3R,5S)-3-{7-[(1R,2S)-2-(3,4-difluorophenyl)cyclopropylamino]5-(propylthio)-3H-(1,2,3)triazolo (4,5-D)pyrimidin-3-yl}-5-(2 hydroxyethoxy)cyclopentane-1,2-diol]
Appearance ([1]; 5 mg/ml ticagrelor with 25, 30, 35 and 40 w/w % HPβCD): Clear
Appearance on standing ([1]; 5 mg/ml, HPβCD 40%, 35% or 30% w/w in milliQ water, at least three days at room temperature and several days at 4° C.): remained clear
Appearance After 5 min of shaking [1, 3]: − (translucent solution with precipitation)
Appearance After 30 min of shaking [1, 3]: +/−
Appearance After 60 min of shaking [1, 3]: +/−
Appearance After 3 h of shaking [1, 3]: +/−
Appearance After overnight shaking [1, 3]: − (translucent solution with precipitation)
Appearance After 5 min of shaking [1, 4]: − (translucent solution with precipitation)
Appearance After 30 min of shaking [1, 4]: − (translucent solution with precipitation)
Appearance After 60 min of shaking [1, 4]: − (translucent solution with precipitation)
Appearance After 3 h of shaking [1, 4]: − (translucent solution with precipitation)
Appearance After overnight shaking [1, 4]: − (translucent solution with precipitation)
Appearance After 5 min of shaking [1, 5]: − (translucent solution with precipitation)
Appearance After 30 min of shaking [1, 5]: − (translucent solution with precipitation)
Appearance After 60 min of shaking [1, 5]: − (translucent solution with precipitation)
Appearance After 3 h of shaking [1, 5]: − (translucent solution with precipitation)
Appearance After overnight shaking [1, 5]: − (translucent solution with precipitation)
Appearance After 5 min of shaking [1, 6]: − (translucent solution with precipitation)
Appearance After 30 min of shaking [1, 6]: +/−
Appearance After 60 min of shaking [1, 6]: +/−
Appearance After 3 h of shaking [1, 6]: +/−
Appearance After overnight shaking ([1]; HPβCD 25% w/w, ticagrelor 5 mg/ml, after one hour of sonication): +* (clear, appeared completely dissolved)
Appearance After 5 min of shaking [1, 7]: − (translucent solution with precipitation)
Appearance After 30 min of shaking [1, 7]: − (translucent solution with precipitation)
Appearance After 60 min of shaking [1, 7]: − (translucent solution with precipitation)
Appearance After 3 h of shaking [1, 7]: − (translucent solution with precipitation)
Appearance After overnight shaking [1, 7]: − (translucent solution with precipitation)
Appearance After 5 min of shaking [1, 8]: − (translucent solution with precipitation)
Appearance After 30 min of shaking [1, 8]: − (translucent solution with precipitation)
Appearance After 60 min of shaking [1, 8]: − (translucent solution with precipitation)
Appearance After 3 h of shaking [1, 8]: − (translucent solution with precipitation)
Appearance After overnight shaking [1, 8]: − (translucent solution with precipitation)
Appearance After 5 min of shaking [1, 9]: − (translucent solution with precipitation)
Appearance After 30 min of shaking [1, 9]: +/−
Appearance After 60 min of shaking [1, 9]: +/−
Appearance After 3 h of shaking [1, 9]: +/−
Appearance After overnight shaking [1, 9]: + (clear, appeared completely dissolved)
Appearance After 5 min of shaking [1, 10]: − (translucent solution with precipitation)
Appearance After 30 min of shaking [1, 10]: − (translucent solution with precipitation)
Appearance After 60 min of shaking [1, 10]: − (translucent solution with precipitation)
Appearance After 3 h of shaking [1, 10]: − (translucent solution with precipitation)
Appearance After overnight shaking [1, 10]: − (translucent solution with precipitation)
Appearance After 5 min of shaking [1, 11]: − (translucent solution with precipitation)
Appearance After 30 min of shaking [1, 11]: − (translucent solution with precipitation)
Appearance After 60 min of shaking [1, 11]: − (translucent solution with precipitation)
Appearance After 3 h of shaking [1, 11]: − (translucent solution with precipitation)
Appearance After overnight shaking [1, 11]: − (translucent solution with precipitation)
Appearance After 5 min of shaking [1, 12]: +/−
Appearance After 30 min of shaking [1, 12]: +/−
Appearance After 60 min of shaking [1, 12]: +/−
Appearance After 3 h of shaking [1, 12]: +/−
Appearance After overnight shaking [1, 12]: + (clear, appeared completely dissolved)
Appearance After 5 min of shaking [1, 13]: − (translucent solution with precipitation)
Appearance After 30 min of shaking [1, 13]: +/−
Appearance After 60 min of shaking [1, 13]: +/−
Appearance After 3 h of shaking [1, 13]: +/−
Appearance After overnight shaking [1, 13]: + (clear, appeared completely dissolved)
Appearance After 5 min of shaking [1, 14]: − (translucent solution with precipitation)
Appearance After 30 min of shaking [1, 14]: +/−
Appearance After 60 min of shaking [1, 14]: +/−
Appearance After 3 h of shaking [1, 14]: +/−
Appearance After overnight shaking [1, 14]: +/−
Appearance After 5 min of shaking [1, 15]: + (clear, appeared completely dissolved)
Appearance After 30 min of shaking [1, 15]: + (clear, appeared completely dissolved)
Appearance After 60 min of shaking [1, 15]: + (clear, appeared completely dissolved)
Appearance After 3 h of shaking [1, 15]: + (clear, appeared completely dissolved)
Appearance After overnight shaking [1, 15]: + (clear, appeared completely dissolved)
Appearance After 5 min of shaking [1, 16]: − (translucent solution with precipitation)
Appearance After 30 min of shaking [1, 16]: +/−
Appearance After 60 min of shaking [1, 16]: +/−
Appearance After 3 h of shaking [1, 16]: +/−
Appearance After overnight shaking [1, 16]: + (clear, appeared completely dissolved)
Appearance After 5 min of shaking [1, 17]: − (translucent solution with precipitation)
Appearance After 30 min of shaking [1, 17]: +/−
Appearance After 60 min of shaking [1, 17]: +/−
Appearance After 3 h of shaking [1, 17]: +/−
Storage stability ([2]; 40° C. and 75% Relative Humidity): good storage stability
Acetal impurity ([2]; pH 7.5, T = 0): 0.05%
Amine impurity ([2]; pH 7.5, T = 0): 0.04%
Assay Ticagrelor ([2]; pH 7.5, T = 0): 104.27%
Regiomer impurity ([2]; pH 7.5, T = 0): 0.00%
Sum Impurities >0.05 ([2]; pH 7.5, T = 0): 0.11%
Total Impurities ([2]; pH 7.5, T = 0): 0.31%
Triol impurity ([2]; pH 7.5, T = 0): 0.04%
Acetal impurity [2, 18]: 0.05%
Amine impurity [2, 18]: 0.05%
Assay Ticagrelor [2, 18]: 104.47%
Regiomer impurity [2, 18]: 0.01%
Sum Impurities >0.05 [2, 18]: 0.14%
Total Impurities [2, 18]: 0.32%
Triol impurity [2, 18]: 0.05%
Acetal impurity [2, 19]: 0.05%
Amine impurity [2, 19]: 0.05%
Assay Ticagrelor [2, 19]: 102.59%
Regiomer impurity [2, 19]: 0.04%
Sum Impurities >0.05 [2, 19]: 0.15%
Total Impurities [2, 19]: 0.29%
Triol impurity [2, 19]: 0.05%
Acetal impurity [2, 20]: 0.05%
Amine impurity [2, 20]: 0.05%
Assay Ticagrelor [2, 20]: 102.31%
Regiomer impurity [2, 20]: 0.08%
Sum Impurities >0.05 [2, 20]: 0.23%
Total Impurities [2, 20]: 0.41%
Triol impurity [2, 20]: 0.04%
Acetal impurity [2, 21]: 0.05%
Amine impurity [2, 21]: 0.07%
Assay Ticagrelor [2, 21]: 104.39%
Regiomer impurity [2, 21]: 0.16%
Sum Impurities >0.05 [2, 21]: 0.33%
Total Impurities [2, 21]: 0.35%
Triol impurity [2, 21]: 0.05%
